Results reported in patent US6852710B2, “2-alkoxyestradiol analogs with antiproliferative and antimitotic activity” (Southwest Foundation for Biomedical Research, priority 2001, dated 2005).

What was measured:
[1] = tested on: NCI/ADR cells; experiment: SRB assay, inhibition of proliferation, multidrug resistant line; type: cell-based, human; settings: for IC50: Homo sapiens, NCI/ADR-RES, NCI/ADR multidrug resistant, 48 hours, n=3 mean±SD; for NCI-ADR/MDA-MB-435 resistance factor: IC50 in NCI/ADR divided by IC50 in MDA-MB-435
Description: The SK-OV-3 cell line was derived from ovarian carcinoma, the MDA-MB-435 and NCI/ADR from breast adenocarcinoma, PC3 and DU 145 from prostate carcinoma and HeLa from cervical carcinoma. The SK-OV-3, HeLa, PC3, and DU 145 and cell lines were obtained from the American Type Culture Collection, 10801 University Blvd., Manassas, Va. 20110-2209. The MDA-MB-435 cell line was obtained from the Lombardi Cancer Center of Georgetown University School of Medicine and the NCI/ADR cell line was obtained from the National Cancer Institute, Fairview Center, Suite 204, 1003 West 7th Street, Frederick, Md. 21701-8531.
(§1) Cells were plated into 96 well plates and allowed to grow and attach for 18-24 hours and then the drugs or vehicle controls were added to the wells. Each data point represents the mean of three experiments, each of which consisted of three replicates within an experiment. The cells were incubated with the drugs for 48 hours and then the cellular protein was fixed and quantified using the sulforhodamine B (SRB) assay. The absorbance of the dye is linear with respect to both cell protein and cell number (Skehan, P.; Storeng, R.; Scudiero, D., Monks; A., McMahon, J.; Vistica, D., Warren, J. T.; Bokesch, H., Kenney, S.; and Boyd, M. R., “New colorimetric cytotoxicity assay for anticancer-drug screening”, J. Natl. Cancer Inst, 82, 1107-1112 (1990)). The effects of the drugs were compared to vehicle controls and the data plotted as percent of control vs. log of drug concentration.
(§2) The IC50 is defined as the drug concentration required to inhibit cell proliferation 50% and is calculated from the linear portion of the log concentration response curve.
(§3) The IC50 values for inhibition of proliferation were calculated from the log dose response curve (n=3, mean±SD).
The effects of the analogs on a multi-drug resistant cell line were also studied. The NCI/ADR cell line is resistant to many chemotherapeutic agents by virtue of its high expression of the drug efflux pump P-glycoprotein. The NCI/ADR cell line was obtained from the National Cancer Institute, Fairview Center, Suite 204, 1003 West 7th Street, Frederick, Md. 21701-8531.
The IC50 values for inhibition of proliferation were calculated from the dose-response curves. The values represent the mean of 3 experiments ±SD. Resistance factors were calculated by dividing the IC50 of the resistant cell line, NCI/ADR, by the IC50 in a drug sensitive cell line, MDA-MB-435.

[2] = tested on: HeLa cells; experiment: SRB assay, inhibition of proliferation; type: cell-based; settings: Homo sapiens, 48 hours, n=3 mean±SD
Procedure: (§4) The 4 analogs of 2-ME2 set forth in Table 1 were tested for antiproliferative activity against 6 human tumor cell lines. The SK-OV-3 cell line was derived from ovarian carcinoma, the MDA-MB-435 and NCI/ADR from breast adenocarcinoma, PC3 and DU 145 from prostate carcinoma and HeLa from cervical carcinoma. The SK-OV-3, HeLa, PC3, and DU 145 and cell lines were obtained from the American Type Culture Collection, 10801 University Blvd., Manassas, Va. 20110-2209. The MDA-MB-435 cell line was obtained from the Lombardi Cancer Center of Georgetown University School of Medicine and the NCI/ADR cell line was obtained from the National Cancer Institute, Fairview Center, Suite 204, 1003 West 7th Street, Frederick, Md. 21701-8531.
as §1, §2, §3

[3] = tested on: PC3 cells; experiment: SRB assay, inhibition of proliferation; type: cell-based; settings: Homo sapiens, PC-3; PC3, 48 hours, n=3 mean±SD
Procedure: as §4, §1, §2, §3

[4] = tested on: SK-OV-3 cells; experiment: SRB assay, inhibition of proliferation; type: cell-based; settings: Homo sapiens; SK-OV-3, 48 hours, n=3 mean±SD
Procedure: as §4, §1, §2, §3

[5] = tested on: DU 145 cells; experiment: SRB assay, inhibition of proliferation; type: cell-based, human; settings: for IC50: Homo sapiens, DU 145, 48 hours, n=3 mean±SD
Procedure: as §4, §1, §2, §3

[6] = tested on: MDA-MB-435 cells; experiment: SRB assay, inhibition of proliferation; type: cell-based, human; settings: for IC50: Homo sapiens, MDA-MB-435, 48 hours, n=3 mean±SD
Procedure: as §4, §1, §2, §3

[7] = tested on: Human Umbilical Vein Endothelial Cells (HUVEC); experiment: HUVEC proliferation (SRB assay); type: cell-based; settings: for IC50: Homo sapiens, HUVEC, SRB assay; for potency relative to 2-ME2, HUVEC proliferation: in words
Description: FIG. 2 illustrates the effects of compounds on Human Umbilical Vein Endothelial Cells (HUVEC) proliferation. The SRB assay was used to construct the dose response curves of the agents in HUVEC cells. n=3±SD;
Two in vitro assays were used to detect the potential for antiangiogenic activity of the analogs. One assay tested the ability of the analogs to inhibit the cellular proliferation of endothelial cells as shown below (Table 4). The ability of the analogs to inhibit the proliferation of endothelial cells was tested and compared to the effects of 2-ME2. Drugs that have antiangiogenic activity inhibit the proliferation of endothelial cells.

[8] = tested on: Human Umbilical Vein Endothelial Cells (HUVEC); experiment: HUVEC invasion, Matrigel invasion chambers; type: cell-based; settings: for IC50: Homo sapiens, HUVEC, Matrigel, 24 hours
Description: FIG. 3 illustrates the effects of compounds on Human Umbilical Vein Endothelial Cells (HUVEC) cell invasion. Becton-Dickinson (BD) Biocoat® Matrigel® invasion chambers were used to construct dose response curves of the compounds for invasion of HUVECs. n=3±SD;
A second assay was also used to evaluate the analogs for potential antiangiogenic activity. The complex process of endothelial cell invasion and migration are key events during angiogenesis. The ability of compounds to inhibit the invasion and migration of endothelial cells through a biological membrane matrix was evaluated. Specifically, the ability of the 2-ME2 analogs, 15-dehydro-2-ME2, 14-dehydro-2-ME2 and 2-ME2-15α,16α to inhibit the invasion and migration of human umbilical vein endothelial cells (HUVEC) through Matrigel® basement membrane material and a PET membrane with 8 μm pores was evaluated. HUVECs were obtained from BioWhittaker and were used during passages of 2 to 6. BD Biocoat® Matrigel® invasion chambers were used for the assays. These modified Boyden chambers have a PET membrane with 8 μm pores that have been coated with Matrigel®. The membrane separates the upper chamber from the lower chamber. HUVECs were plated into the top chamber in media containing 0.1% bovine serum albumin with either a test compound or vehicle and allowed to invade and migrate through pores for 24 hours. The media in the lower chamber contained the chemoattractant, 10% fetal bovine, serum. Following the incubation period the cells on the top of the membrane were removed with a cotton swab and the cells that had migrated through the pores to the lower surface of the membrane were stained with hematoxylin and eosin and counted microscopically. Experiments were conducted in duplicate and the numbers of cells that migrated were counted in 10 microscope fields per transwell chamber. The data are expressed as percent of vehicle control invasion. Dose response curves were generated and are shown in FIG. 3 and the IC50s for inhibition of HUVEC invasion were determined and are presented above in Table 4. All of the 2-ME2 analogs inhibited HUVEC invasion.

[9] = tested on: MDA-MB-435 breast cancer xenograft; experiment: MDA-MB-435 breast cancer xenograft model; type: in vivo, mice; settings: for tumor growth delay: intraperitoneally daily for 30 days, time for median to reach tumor burden of 1500 mg vs control; for antitumor effect compared with 2-ME2: tumor burden versus time
Procedure: FIG. 4 illustrates the effects of compounds in an MDA-MB-435 breast cancer xenograft model. The data are the means of the groups ±SEM. Statistical significance (P<0.05) is indicated by an asterisk;
The analogs were tested for antitumor activity using an MDA-MB-435 breast cancer xenograft model. Tumor fragments of MDA-MB-435 (30 mg) were implanted subcutaneously into female athymic NCr-nu mice (SWF-1) weighing approximately 24 g. The tumor fragments were harvested from nude mice hosts. Animal weight and tumor dimensions were measured twice weekly with calipers and tumor weights estimated using 2-dimensional measurements of length and width and the formula [1×(w)^2]/2. When the tumors reached an approximate size equivalent to 175 mg (13 days after implantation) the mice were randomized to treatment or control groups and treatments were begun. The compounds were administered intraperitoneally daily for 30 days on the basis of individual animal body weights. Treatment groups contained 10 mice and the vehicle treated control group consisted of 20 mice. The mean tumor burdens were plotted for each treatment group and compared to controls. The means of the tumor burden data were analyzed for differences using a one-sided Student's t-test, with a P<0.05 considered to be significant difference. Tumor growth delay, the difference between the time for the median of each group (treatment and control) to reach a tumor burden of 1500 mg was calculated.

[10] = tested on: 6 human tumor cell lines; experiment: SRB antiproliferative assay, panel of tumor cell lines; type: cell-based; settings: for potency compared with 2-ME2, tumor cell lines: in words, 15-dehydro-2-ME2: MDA-MB-435, NCI/ADR, PC3, HeLa and SK-OV-3
Procedure: as §4, §1, §2

COc1cc2c(cc1O)CCC1C2CC[C@@]2(C)C1CC[C@@H]2O (some centres unmarked) [2-ME2, 2-Methoxyestradiol, reference compound]
IC50 [1]: 0.38 ± 0.01 µM
NCI-ADR/MDA-MB-435 resistance factor [1]: 0.28
IC50 [2]: 0.45 ± 0.04 µM
IC50 [3]: 2.22 ± 0.15 µM
IC50 [4]: 1.79 ± 0.24 µM
IC50 [5]: 4.26 ± 0.95 µM
IC50 [6]: 1.38 ± 0.1 µM
IC50 [7]: 0.7 ± 0.11 µM
IC50 [8]: 1.99 ± 0.39 µM

COc1cc2c(cc1O)CCC1C2CC[C@@]2(C)C1[C@H]1OC(C)(C)O[C@H]1[C@@H]2O (stereo partly drawn) [2-ME2-15α, 16α, 2-Methoxy-3,15α,16α,17β-tetrahydroxyestra-1,3,5(10)-triene 15,16-acetonide]
IC50 [1]: 4.21 ± 0.6 µM
NCI-ADR/MDA-MB-435 resistance factor [1]: 1.30
IC50 [2]: 2.98 ± 0.24 µM
IC50 [3]: 5.13 ± 1.53 µM
IC50 [4]: 5.16 ± 0.99 µM
IC50 [5]: 6.78 ± 0.62 µM
IC50 [6]: 3.24 ± 0.35 µM
potency relative to 2-ME2, HUVEC proliferation [7]: less potent
IC50 [7]: 11.9 ± 2.17 µM
potency relative to 2-ME2 in inhibiting HUVEC invasion [8]: less potent
IC50 [8]: 16 ± 1.98 µM
tumor growth delay [9]: 11.3 days
antitumor effect compared with 2-ME2 [9]: superior to 2-ME2
potency compared with 2-ME2, tumor cell lines [10]: generally less potent than 2-ME2

COc1cc2c(cc1O)CC=C1[C@@H]2CC[C@]2(C)[C@@H](O)CC[C@@H]12 [7-dehydro-2-ME2, 2-Methoxyestra-1,3,5(10), 7-tetraen-3,17β-diol]
IC50 [1]: 2.54 ± 0.44 µM
NCI-ADR/MDA-MB-435 resistance factor [1]: 1.29
IC50 [4]: 4.49 ± 0.18 µM
IC50 [6]: 1.97 ± 0.4 µM
potency compared with 2-ME2 ([6]; MDA-MB-435 cell line, in words): almost equipotent
potency relative to 2-ME2, HUVEC proliferation [7]: less potent
IC50 [7]: 4.39 ± 0.37 µM
potency compared with 2-ME2, tumor cell lines [10]: generally less potent than 2-ME2

COc1cc2c(cc1O)CC[C@H]1C3=CC[C@H](O)[C@@]3(C)CC[C@H]21 [14-dehydro-2-ME2, 2-Methoxyestra-1,3,5(10), 14-tetraen-3,17β-diol]
IC50 [1]: 0.056 ± 0.01 µM
NCI-ADR/MDA-MB-435 resistance factor [1]: 1.0
IC50 [2]: 0.05 ± 0.02 µM
IC50 [3]: 0.35 ± 0.09 µM
IC50 [4]: 0.15 ± 0.07 µM
potency relative to 2-ME2 ([5]; DU 145 cell line): 2.7 fold
IC50 [5]: 1.58 ± 0.81 µM
IC50 [6]: 0.056 ± 0.002 µM
potency relative to 2-ME2, HUVEC proliferation [7]: more potent than 2-ME2
IC50 [7]: 0.049 µM
potency relative to 2-ME2 in inhibiting HUVEC invasion [8]: more than 6 times
IC50 [8]: 0.3 ± 0.02 µM
tumor growth delay [9]: 10.0 days
antitumor effect compared with 2-ME2 [9]: superior to 2-ME2
potency relative to 2-ME2 ([10]; 5 of the 6 cell lines tested): 6-24 fold

CC(=O)O[C@H]1C(=O)[C@@]2(C)[C@H]([C@H](OC(=O)c3ccccc3)[C@]3(O)C[C@H](OC(=O)[C@H](O)[C@@H](NC(=O)c4ccccc4)c4ccccc4)C(C)=C1C3(C)C)[C@]1(OC(C)=O)CO[C@@H]1C[C@@H]2O [Taxol ®, reference compound]
IC50 [1]: 4.46 ± 0.61 µM
NCI-ADR/MDA-MB-435 resistance factor [1]: 2218.91
IC50 [6]: 0.00201 ± 0.0003 µM

CC[C@]1(O)C[C@@H]2CN(CCc3c([nH]c4ccccc34)[C@@](C(=O)OC)(c3cc4c(cc3OC)N(C)[C@H]3[C@@](O)(C(=O)OC)[C@H](OC(C)=O)[C@]5(CC)C=CCN6CC[C@]43[C@@H]65)C2)C1 [Vinblastine, reference compound]
IC50 [1]: 0.43 ± 0.07 µM
NCI-ADR/MDA-MB-435 resistance factor [1]: 139.61
NCI-ADR/MDA-MB-435 resistance factor ([1]; listed as vinblastine): 140
IC50 [6]: 0.00308 ± 9e-05 µM
